Results: US12617777B2, “GPR84 antagonists and uses thereof” (Liminal BioSciences Limited, priority 2021, dated 2026)

Key:
[1] = target: T1, human GPR84 receptor (Homo sapiens, UniProt Q9NQS5); assay: Gαi biosensor BRET assay in HEK293 cells (antagonism of ZQ-16); format: cell-based; settings: for IC50: HEK293 cells, antagonism of 200 nmol/L ZQ-16; for inhibition at 10 µM: HEK293, single concentration 10 μM (designated F); for inhibition at 25 µM: HEK293, single concentration 25 μM (designated I); for inhibition at 2 µM: HEK293, single concentration 2 μM (designated A)
T1 construct: host or cells: HEK293, transient transfection
T1 sequence (Q9NQS5 whole entry): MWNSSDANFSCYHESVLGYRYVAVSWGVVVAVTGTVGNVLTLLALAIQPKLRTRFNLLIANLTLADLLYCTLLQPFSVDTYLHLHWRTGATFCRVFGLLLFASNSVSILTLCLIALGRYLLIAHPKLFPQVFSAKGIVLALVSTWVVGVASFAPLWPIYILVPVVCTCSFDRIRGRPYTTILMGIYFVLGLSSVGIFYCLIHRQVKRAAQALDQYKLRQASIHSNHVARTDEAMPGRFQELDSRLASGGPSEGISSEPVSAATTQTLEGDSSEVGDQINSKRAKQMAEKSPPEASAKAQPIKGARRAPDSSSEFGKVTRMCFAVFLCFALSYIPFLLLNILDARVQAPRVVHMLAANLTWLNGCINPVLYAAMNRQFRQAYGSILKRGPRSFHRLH
Procedure, shortened: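 Antagonist mode: test compound 5 min at 37° C, followed by ZQ-16 agonist (200 nmol/L, 5 min, room temperature), in HEK293 cells transfected with GPR84 plus Rluc8-tagged Gαi2, GFP10-Gγ2 and Gβ1. Readout as GFP10/Rluc8 emission ratio after 5 μmol/L coelenterazine 400A, net of Rluc8-only and vehicle signal.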

[2] = test system: neutrophils; assay: Neutrophil migration assay (embelin as chemotactic agent, ATPlite readout); format: cell-based; settings: for IC50: Neutrophil, human neutrophils, embelin as chemotactic agent, read-out: Human Neutrophil migration inhibition IC50; for Human Neutrophil migration inhibition - fold potency to Control Compound: normalized to GPR84 antagonist Control Compound (average IC50 131 nM)
Method: Neutrophil migration assay. After isolation, neutrophils were resuspended in chemotaxis buffer (DMEM supplemented with 10 mM HEPES) at a concentration of 8.9×10^6 cells/ml. In a 96-well plate, 20 μl of compound solution in chemotaxis buffer is added to 180 μl of cell suspension. After incubation at 37° C. for 30 minutes, 75 μl of cell suspension is transferred in the upper chamber of a 5 μm pore size Corning HTS transwell. 235 μl of chemotaxis buffer containing the chemotactic agent (embelin) is added to the lower chamber of the transwell. After a 60-minute incubation time at 37° C. in 5%0 C02, the upper chamber of the transwell is removed and the plate is centrifuged at 1500 rpm for 6 minutes. Supermatant is removed and cells resuspended in 100 ul of PBS. ATP content was assessed using ATPlite Luminescence Assay System® according to manufacturer instructions (Perkin Elmer, Buckinghamshire, UK). Briefly, 50 μl of ATPlite buffer and 50 μl of lysis solution is added to the lower chamber of the Transwells. After incubation at room temperature, in the dark with constant agitation for 5 minutes, 150 μl of cell lysate is transferred in a 96 wells white plate and incubated for 10 minutes in the dark. Luminescence is read on a TECAN plate reader, Infinite M1000 (Tecan, Morrisville, NC).
The compound numbers correspond to the compound numbers in Table 1. […] Normalization of the results takes the donor's variation into account.

| SMILES | IC50 [1] | inhibition at 10 µM [1] | further results |
| --- | --- | --- | --- |
| Cc1cc(N2CCN(Cc3ccccn3)CC2)ccc1-c1cn(C[C@H]2CCCCO2)nn1 [Compound I-423] | 300 to 1000 nM | – | inhibition at 6 µM ([1]; HEK293, single concentration 6.00 μM (designated D°)): > 75%; IC50 [2]: ≤ 300 nM; Human Neutrophil migration inhibition - fold potency to Control Compound [2]: A (IC50 of >1.0-fold relative to Control Compound) |
| CN(C)c1cc(C#CC2CC2)ccc1-c1cn(CC2CCCCO2)nn1 (stereo not drawn) [Compound I-87] | 1000 to 3000 nM | – | IC50 [2]: 1000 to 3000 nM; Human Neutrophil migration inhibition - fold potency to Control Compound [2]: C (IC50≤0.5-fold relative to Control Compound) |
| CC(C)Oc1cc(C#CC2CC2)cnc1-c1cn(CC2CCCCO2)nn1 (stereo not drawn) [Compound I-478] | ≤ 300 nM | > 75% | IC50 [2]: ≤ 300 nM; Human Neutrophil migration inhibition - fold potency to Control Compound [2]: B (IC50 of >0.5-≤1.0-fold relative to Control Compound) |
| Cc1ccc(C#CC2CC2)cc1-c1cn(CC2CCCCO2)nn1 (stereo not drawn) [Compound I-65] | 1000 to 3000 nM | – | inhibition at 25 µM [1]: > 75%; IC50 [2]: 1000 to 3000 nM; Human Neutrophil migration inhibition - fold potency to Control Compound [2]: C (IC50≤0.5-fold relative to Control Compound) |
| Cc1cc(C#CC2CC2)ccc1-c1cn(CC2CCC(C)(C)CO2)nn1 (stereo not drawn) [Compound I-455] | 1000 to 3000 nM | > 75% | IC50 [2]: ≤ 300 nM; Human Neutrophil migration inhibition - fold potency to Control Compound [2]: B (IC50 of >0.5-≤1.0-fold relative to Control Compound) |
| Cc1cc(N2CC(C)(C)C2)ccc1-c1cn(CC2CCCCO2)nn1 (stereo not drawn) [Compound I-75] | 300 to 1000 nM | – | inhibition at 25 µM [1]: > 75%; IC50 [2]: ≤ 300 nM; Human Neutrophil migration inhibition - fold potency to Control Compound [2]: B (IC50 of >0.5-≤1.0-fold relative to Control Compound) |
| Cc1cc(C#CC(C)(C)O)ccc1-c1cn(CC2CCCCO2)nn1 (stereo not drawn) [Compound I-79] | > 3000 nM | – | inhibition at 15 µM ([1]; HEK293, single concentration 15 μM (designated H)): > 75%; IC50 [2]: 300 to 1000 nM; Human Neutrophil migration inhibition - fold potency to Control Compound [2]: C (IC50≤0.5-fold relative to Control Compound) |
| CN(C)c1cc(N2CC(C)(CO)C2)ccc1-c1cn(CC2CC(C)(C)CO2)nn1 (stereo not drawn) [Compound I-499] | 300 to 1000 nM | > 75% | IC50 [2]: ≤ 300 nM; Human Neutrophil migration inhibition - fold potency to Control Compound [2]: A (IC50 of >1.0-fold relative to Control Compound) |
| Cc1cc(C#CC(C)C)ccc1-c1cn(CC2CCCCO2)nn1 (stereo not drawn) [Compound I-66] | > 3000 nM | – | IC50 [2]: 1000 to 3000 nM; Human Neutrophil migration inhibition - fold potency to Control Compound [2]: C (IC50≤0.5-fold relative to Control Compound) |
| CN(C)c1cc(N2CC(C)(CO)C2)ccc1-c1cn(C[C@@H]2CC(C)(C)CO2)nn1 (stereo in doubt) [Compound I-589] | ≤ 300 nM | – | inhibition at 1 µM ([1]; HEK293, single concentration 1 μM (designated A°)): > 75%; IC50 [2]: ≤ 300 nM; Human Neutrophil migration inhibition - fold potency to Control Compound [2]: A (IC50 of >1.0-fold relative to Control Compound) |
| CCc1cc(C#CCNc2ccccc2)cnc1-c1cn(CC2CC(C)(C)CO2)nn1 (stereo not drawn) [Compound I-474] | 300 to 1000 nM | – | inhibition at 2 µM [1]: > 75%; IC50 [2]: ≤ 300 nM; Human Neutrophil migration inhibition - fold potency to Control Compound [2]: A (IC50 of >1.0-fold relative to Control Compound) |
| Cc1cc(C#CCn2cc(-c3ccc(N(C)C)cc3)nn2)ccc1-c1cn(CC2CCCCO2)nn1 (stereo not drawn) [Compound I-456] | ≤ 300 nM | – | inhibition at 2 µM [1]: > 75%; IC50 [2]: ≤ 300 nM; Human Neutrophil migration inhibition - fold potency to Control Compound [2]: A (IC50 of >1.0-fold relative to Control Compound) |
| Cc1cc(N2CC(C)(N(C)Cc3ccccn3)C2)ccc1-c1cn(CC2CCCCO2)nn1 (stereo not drawn) [Compound I-451] | 300 to 1000 nM | > 75% | IC50 [2]: ≤ 300 nM; Human Neutrophil migration inhibition - fold potency to Control Compound [2]: A (IC50 of >1.0-fold relative to Control Compound) |
| Cc1cc(C#CCN2CC(C)(C)C2)ccc1-c1cn(CC2OCC(C)(C)CO2)nn1 [Compound I-634] | ≤ 300 nM | > 75% | IC50 [2]: ≤ 300 nM; Human Neutrophil migration inhibition - fold potency to Control Compound [2]: A (IC50 of >1.0-fold relative to Control Compound) |
| Cc1cc(N2CCN(Cc3ncccn3)CC2)ccc1-c1cn(CC2CCCCO2)nn1 (stereo not drawn) [Compound I-547] | – | 25 to 50% | – |
| CN(C)c1cc(N2CC(C)(CO)C2)c(F)cc1-c1cn(CC2OCC3(CC3)CO2)nn1 [Compound I-784] | ≤ 300 nM | – | – |
| Cc1cc(N2CC(CF)C2)ccc1-c1cn(CC2CCCCO2)nn1 (stereo not drawn) [Compound I-544] | – | 25 to 50% | – |
| Cc1cc(N2CCN(Cc3cnccn3)CC2)ccc1-c1cn(CC2CCCCO2)nn1 (stereo not drawn) [Compound I-577] | – | 25 to 50% | – |
| COCC#Cc1cnc(-c2cn(CC3CCCCO3)nn2)c(C)c1 (stereo not drawn) [Compound I-273] | – | 50 to 75% | – |
| Cc1cc(C#CC2CC2)ccc1-c1cn(CC2CCCCN2)nn1 (stereo not drawn) [Compound I-126] | – | ≤ 25% | – |
| Cc1cc(N2CC3(CCN(Cc4ccccc4)C3)C2)ccc1-c1cn(CC2CCCCO2)nn1 (stereo not drawn) [Compound I-169] | – | ≤ 25% | – |
| Cc1cc(C#CCNC(=O)c2ccccc2)ccc1-c1cn(CC2CCCCO2)nn1 (stereo not drawn) [Compound I-209] | > 2000 nM | – | – |
| CC(=O)N(C)C(C)(C)COc1ccc(-c2cn(CC3CCCCO3)nn2)c(C)c1 (stereo not drawn) [Compound I-290] | – | 25 to 50% | – |
| Cc1cc(N2CC3(CCN(Cc4ccccn4)CC3)C2)ccc1-c1cn(CC2CCCCO2)nn1 (stereo not drawn) [Compound I-311] | – | 50 to 75% | – |

| SMILES | IC50 [1] | inhibition at 10 µM [1] | further results |
| --- | --- | --- | --- |
| Cc1c(C(C)c2cccc(C#CC3CC3)c2)nnn1CC1CCCCO1 (stereo not drawn) [Compound I-624] | – | ≤ 25% | – |
| Cc1ccc(C#CC2CC2)cc1N(C)c1cn(CC2OCC3(CC3)CO2)nn1 [Compound I-842] | – | – | inhibition at 2 µM [1]: 50 to 75% |
| COCCn1cc(-c2ccc(C#CC3CC3)cc2C)nn1 [Compound I-104] | – | ≤ 25% | – |
| COc1cc(N2CC(C)(C)C2)ccc1-c1cn(CC2CCCCO2)nn1 (stereo not drawn) [Compound I-279] | – | > 75% | – |
| CC(C)Oc1cc(N2CC(C)(C)C2)cnc1-c1cn(CC2CCCCO2)nn1 (stereo not drawn) [Compound I-630] | – | > 75% | – |
| Cc1cc(C#CC2CC2)ccc1-c1cn(Cc2nccn2C)nn1 [Compound I-517] | – | ≤ 25% | – |
| Cc1cc(NS(C)(=O)=O)ccc1-c1cn(CC2CCCCO2)nn1 (stereo not drawn) [Compound I-130] | – | ≤ 25% | – |
| Cc1cc(C#CC2CC2)cnc1-c1cn(CC2CCCCO2)nn1 (stereo not drawn) [Compound I-866] | 1000 to 3000 nM | – | – |
| OCC#Cc1cnc(-c2cn(CC3OCC4(CC4)CO3)nn2)c(OC2CC2)c1 [Compound I-839] | – | > 75% | – |
| Cc1cc(N2CC(C)(CO)C2)c(F)cc1-c1cn(C[C@@H]2CCCCO2)nn1 [Compound I-805] | – | – | inhibition at 2 µM [1]: > 75% |
| C(#CC1CC1)c1ccc(-c2cn(C[C@H]3CCCO3)nn2)cc1 [Compound I-27] | > 3000 nM | – | inhibition at 25 µM [1]: 25 to 50% |
| Cc1cc(N2CC(C)(CNc3ccccn3)C2)ccc1-c1cn(CC2OCC(C)(C)CO2)nn1 [Compound I-673] | ≤ 300 nM | – | inhibition at 2 µM [1]: > 75% |
| COC(=O)N1CCCCC1Cn1cc(-c2ccc(C#CC3CC3)cc2C)nn1 (stereo not drawn) [Compound I-190] | – | ≤ 25% | – |
| Cc1cc(C#CCn2cc(-c3ccccc3)nn2)cnc1-c1cn(CC2CCCCO2)nn1 (stereo not drawn) [Compound I-720] | 300 to 1000 nM | > 75% | – |
| CCc1cc(C#CCN2CC(C)(C)C2)cnc1-c1cn(CC2OCC(C)(C)CO2)nn1 [Compound I-666] | ≤ 300 nM | – | inhibition at 2 µM [1]: > 75% |
| CCOCC#Cc1cnc(-c2cn(CC3OCC(C)(C)CO3)nn2)c(OC2CC2)c1 [Compound I-819] | ≤ 300 nM | > 75% | – |
| Cc1cc(C#CCNC(=O)OC(C)C)cnc1-c1cn(CC2CCCCO2)nn1 (stereo not drawn) [Compound I-570, isopropyl (3-(5-methyl-6-(1-((tetrahydro-2H-pyran-2-yl)methyl)-1H-1,2,3-triazol-4-yl)pyridin-3-yl)prop-2-yn-1-yl)carbamate] | > 3000 nM | > 75% | – |
| Cc1cc(OCc2ccccn2)ccc1-c1cn(CC2CCCCO2)nn1 (stereo not drawn) [Compound I-54] | 300 to 1000 nM | – | inhibition at 25 µM [1]: 50 to 75% |
| CCc1ccc(C#CC2CC2)cc1Cc1cn(CC2CCCCO2)nn1 (stereo not drawn) [Compound I-475] | – | – | inhibition at 2 µM [1]: 25 to 50% |
| Cc1cc(N2CC3(C2)CN(c2ccccn2)C3)ccc1-c1cn(CC2OCC(C)(C)CO2)nn1 [Compound I-663] | > 3000 nM | > 75% | – |
| Cc1cc(C#CC2CC2)ccc1-c1cn(CC23CCC(CC2)CO3)nn1 [Compound I-509] | – | – | inhibition at 2 µM [1]: ≤ 25% |
| Cc1cc(C#CCN2CCCCC2=O)ccc1-c1cn(CC2CCCCO2)nn1 (stereo not drawn) [Compound I-205] | – | 25 to 50% | – |
| Cc1cc(C#CC2CC2)ccc1-c1cnn(CC2CCCCO2)c1 (stereo not drawn) [Compound I-324] | – | – | inhibition at 25 µM [1]: ≤ 25% |
| Cc1cc(C#CC2CC2)ccc1-c1cn(Cc2ccn(C)n2)nn1 [Compound I-543] | – | – | inhibition at 2 µM [1]: ≤ 25% |
